# Measured values: PubChem BioAssay AID2060909 (Molecular Pharmacology Branch, DTP, NCI, 2025)
# Tested on: 362531-283-R-J2-PDC complex spheroid viability
# Assay: Anticancer human tumor 362531-283-R-J2-PDC patient-derived colon adenocarcinoma cell line growth inhibition [RAS]
# Settings: for IC50: curve of first compound; for viability, T/C: stronger effect = lower value
# From the text: RAS pathway inhibitors in Combinations in Complex Spheroids
# A high-throughput screen of multi-cell type tumor spheroids was designed to identify active combinations of RAS pathway inhibitors and targeted small molecules. Complex spheroids include a stromal component modeled by human endothelial cells (HUVEC) and fibroblasts modeled by human mesenchymal stem cells (MSCs). The concentration ranges selected for each drug and investigational agent were based upon clinically achievable concentrations if the clinical Cmax of the agent was known.
# Compounds. The drugs and investigational agents: abemaciclib (NSC768073), cobimetinib (NSC768068), divarasib (GDC6063, NSC841802), docetaxel (NSC628503), GDC-1971 (RLY-1971, NSC841576), gemcitabine (NSC613327), inavolisib (NSC800729), ipatasertib (NSC767898), KB-0742 (NSC834161), MRTX-1133 (NSC836407), osimertinib (NSC779217), RMC-4630 (NSC839698), RMC-6236 (NSC851965), RMC-6291 (NSC852671), Ro-3306 (NSC812927), sapanisertib (NSC764658), SN-38 (NSC673596), staurosporine (NSC755774), SY5609 (NSC837396), and tovorafenib (DAY101, NSC766906), were obtained from the National Cancer Institute (NCI) Developmental Therapeutics Program Chemical Repository. The FDA-approved anticancer drug set is available from the NCI Developmental Therapeutics Program. […] The stock solutions were prepared in dimethyl sulfoxide (DMSO, Sigma-Aldrich, St. Louis, MO, cat. D2650) at 800-fold the tested concentration and stored at -70 degrees C prior to their use. All drugs and investigational agents were tested over a range starting from a high concentration at or near the clinical Cmax and decreasing in half-log increments. If the clinical Cmax for an agent had not been determined, the highest concentration tested was 10 microM.
# Cell Culture. All cells were maintained in an incubator at 37 degrees C and 5% CO2 with 95% humidity. The PDC lines were cultured according to standard operating procedures established by the NCI PDMR. All PDCs were thawed and cultured in Matrigel-coated flasks prepared with a working solution of 1X Ham's F-12 nutrient mix, without supplementation (Invitrogen, Waltham, MA, cat. 11765054), 100 U/mL penicillin-streptomycin (Invitrogen, cat. 15140122), and 2.5% Matrigel (Corning Inc., Corning, NY, cat. 354248) for the first three passages. The 362531-283-R-J2-PDC and 782815-120-R-J1-PDC lines were cultured in 6C/Colon 1B media, which includes advanced DMEM/F-12 (Thermo Fisher Scientific, cat. 12634028), 10 mM HEPES (Thermo Fisher Scientific, cat. 15630080), 1X GlutaMAX supplement (Thermo Fisher Scientific, cat. 35050061), 0.1 mg/mL primocin (InvivoGen, San Diego, CA, cat. ant-pm-2), 10% defined fetal bovine serum, heat inactivated (HyClone Laboratories Inc., Logan, UT, cat. SH30070.03HI), 50% L-WRN conditioned media (ATCC, cat. CRL-3276), 1.25 mM N-Acetyl-L-cysteine (Sigma-Aldrich, cat. A9165), 10 mM nicotinamide (Sigma-Aldrich, cat. N0636), 1X B-27 supplement (Thermo Fisher Scientific, cat. 17504044), 1X N-2 supplement (Thermo Fisher Scientific, cat. 17502048), 50 ng/mL human EGF (Thermo Fisher Scientific, cat. PHG0311), and 10 microM Y-27632 dihydrochloride (Tocris Bioscience, cat. 1254). The K12877-001-R-J1-PDC line was cultured in 6I media, which includes all 6C/Colon 1B media plus 10 ng/mL human FGF-10 (PeproTech, cat. 100-26), 1 ng/mL human FGF-2 (PeproTech, cat. 100-18B), 1 µM prostaglandin E2 (Tocris Bioscience, cat. 2296), […] hydrocortisone (Sigma-Aldrich, cat. H4001), and […] bovine insulin (Sigma-Aldrich, cat. I6634). The K86415-001-R-J1-PDC line was cultured in 6D media, which includes all 6C/Colon 1B media components minus the L-WRN conditioned media. The 485176-168-R4-J1-PDC was cultured in PANC media, which includes all 6C/Colon 1B media plus 100 ng/mL human FGF-10 (PeproTech, cat. 100-26), 500 nM SB-431542 (Selleckchem, cat. S1067), and 10 nM gastrin (Tocris Bioscience, cat. 3006). […]
# 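Note: spheroids exposed to the agents for 7 days before readout.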
# 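Throughout, for viability, T/C: luminescence viability as percent of DMSO vehicle control wells.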
compound,measurement,setting,value
CC(C)n1nc(-c2ccc3oc(N)nc3c2)c2c(N)ncnc21 + CCn1c(-c2cccnc2C(C)OC)c2c3cc(ccc31)N1CCOC(CC(NC(=O)C(C(C)C)N(C)C(=O)C3(F)CCN(C(=O)C#CC(C)(C)N(C)C)CC3)C(=O)N3CCCC(N3)C(=O)OCC(C)(C)C2)C1,IC50,second compound 0.000949 µM,70.8 nM
same,IC50,second compound 0.003 µM,85.7 nM
same,IC50,second compound 0.00949 µM,52.3 nM
same,IC50,second compound 0.03 µM,68.6 nM
same,IC50,second compound 0.0949 µM,73.3 nM
same,IC50,second compound 0.3 µM,65.4 nM
same,"viability, T/C","second compound 0.000949 µM, first compound 0.000316 µM",95.5%
same,"viability, T/C","second compound 0.000949 µM, first compound 0.001 µM",98.7%
same,"viability, T/C","second compound 0.000949 µM, first compound 0.00316 µM",108%
same,"viability, T/C","second compound 0.000949 µM, first compound 0.01 µM",96.2%
same,"viability, T/C","second compound 0.000949 µM, first compound 0.0316 µM",75%
same,"viability, T/C","second compound 0.000949 µM, first compound 0.1 µM",39.4%
same,"viability, T/C","second compound 0.003 µM, first compound 0.000316 µM",99.9%
same,"viability, T/C","second compound 0.003 µM, first compound 0.001 µM",92.8%
same,"viability, T/C","second compound 0.003 µM, first compound 0.00316 µM",102%
same,"viability, T/C","second compound 0.003 µM, first compound 0.01 µM",92.2%
same,"viability, T/C","second compound 0.003 µM, first compound 0.0316 µM",74.5%
same,"viability, T/C","second compound 0.003 µM, first compound 0.1 µM",46.2%
same,"viability, T/C","second compound 0.00949 µM, first compound 0.000316 µM",98.9%
same,"viability, T/C","second compound 0.00949 µM, first compound 0.001 µM",108%
same,"viability, T/C","second compound 0.00949 µM, first compound 0.00316 µM",92.9%
same,"viability, T/C","second compound 0.00949 µM, first compound 0.01 µM",114%
same,"viability, T/C","second compound 0.00949 µM, first compound 0.0316 µM",57.3%
same,"viability, T/C","second compound 0.00949 µM, first compound 0.1 µM",40.6%
same,"viability, T/C","second compound 0.03 µM, first compound 0.000316 µM",103%
same,"viability, T/C","second compound 0.03 µM, first compound 0.001 µM",93%
same,"viability, T/C","second compound 0.03 µM, first compound 0.00316 µM",107%
same,"viability, T/C","second compound 0.03 µM, first compound 0.01 µM",95.5%
same,"viability, T/C","second compound 0.03 µM, first compound 0.0316 µM",63.9%
same,"viability, T/C","second compound 0.03 µM, first compound 0.1 µM",43.2%
same,"viability, T/C","second compound 0.0949 µM, first compound 0.000316 µM",90.4%
same,"viability, T/C","second compound 0.0949 µM, first compound 0.001 µM",93.9%
same,"viability, T/C","second compound 0.0949 µM, first compound 0.00316 µM",95.5%
same,"viability, T/C","second compound 0.0949 µM, first compound 0.01 µM",106%
same,"viability, T/C","second compound 0.0949 µM, first compound 0.0316 µM",68.7%
same,"viability, T/C","second compound 0.0949 µM, first compound 0.1 µM",43.1%
same,"viability, T/C","second compound 0.3 µM, first compound 0.000316 µM",87.9%
same,"viability, T/C","second compound 0.3 µM, first compound 0.001 µM",105%
same,"viability, T/C","second compound 0.3 µM, first compound 0.00316 µM",103%
same,"viability, T/C","second compound 0.3 µM, first compound 0.01 µM",103%
same,"viability, T/C","second compound 0.3 µM, first compound 0.0316 µM",71.8%
same,"viability, T/C","second compound 0.3 µM, first compound 0.1 µM",37.3%
